# ChEMBL document CHEMBL4138146, “A Schmidt rearrangement-mediated synthesis of novel tetrahydro-benzo[1,4]diazepin-5-ones as potential anticancer and antiprotozoal agents” (Eur J Med Chem, 2017)
# Tested on: K562
# Assay: Growth inhibition of human K562 cells assessed as cell growth at 10 uM incubated for 48 hrs by sulforhodamine B assay relative to control
# Assay type: functional
# Conditions: K562, 48 h, read-out: Activity
row,SMILES,growth at 10 µM [%]
1,CCCCn1c(=O)c(C2CNC(=O)c3ccccc3N2)cc2ccc(Cl)cc21 (centres undefined),87.9
2,Cc1ccc2[nH]c(=O)c(C3CNC(=O)c4ccccc4N3)cc2c1 (centres undefined),111

# Tested on: EKVX
# Assay: Growth inhibition of human EKVX cells assessed as cell growth at 10 uM incubated for 48 hrs by sulforhodamine B assay relative to control
# Assay type: functional
# Conditions: read-out: Activity
row,SMILES,growth at 10 µM [%]
1,CCCCn1c(=O)c(C2CNC(=O)c3ccccc3N2)cc2ccc(Cl)cc21 (centres undefined),89.8
2,Cc1ccc2[nH]c(=O)c(C3CNC(=O)c4ccccc4N3)cc2c1 (centres undefined),102

# Tested on: Trypanosoma cruzi
# Assay: Antitrypanosomal activity against Trypanosoma cruzi Tulahuen amastigote forms infected in human U937 cells after 72 hrs by beta-galactosidase reporter gene assay
# Assay type: functional, organism-based
# Conditions: U-937, 72 h
row,SMILES,EC50 [µg/mL]
1,Cc1ccc2[nH]c(=O)c(C3CNC(=O)c4ccccc4N3)cc2c1 (centres undefined),46.3

# Tested on: HCT-15
# Assay: Growth inhibition of human HCT15 cells assessed as cell growth at 10 uM incubated for 48 hrs by sulforhodamine B assay relative to control
# Assay type: functional
# Conditions: HCT-15, 48 h, read-out: Activity
row,SMILES,growth at 10 µM [%]
1,CCCCn1c(=O)c(C2CNC(=O)c3ccccc3N2)cc2ccc(Cl)cc21 (centres undefined),98.5
2,Cc1ccc2[nH]c(=O)c(C3CNC(=O)c4ccccc4N3)cc2c1 (centres undefined),105

# Tested on: SNB-75
# Assay: Growth inhibition of human SNB75 cells assessed as cell growth at 10 uM incubated for 48 hrs by sulforhodamine B assay relative to control
# Assay type: functional
# Conditions: SNB-75, 48 h, read-out: Activity
row,SMILES,growth at 10 µM [%]
1,CCCCn1c(=O)c(C2CNC(=O)c3ccccc3N2)cc2ccc(Cl)cc21 (centres undefined),90
2,Cc1ccc2[nH]c(=O)c(C3CNC(=O)c4ccccc4N3)cc2c1 (centres undefined),97.4

# Tested on: M14
# Assay: Growth inhibition of human M14 cells assessed as cell growth at 10 uM incubated for 48 hrs by sulforhodamine B assay relative to control
# Assay type: functional
# Conditions: M14, 48 h, read-out: Activity
row,SMILES,growth at 10 µM [%]
1,CCCCn1c(=O)c(C2CNC(=O)c3ccccc3N2)cc2ccc(Cl)cc21 (centres undefined),92.6
2,Cc1ccc2[nH]c(=O)c(C3CNC(=O)c4ccccc4N3)cc2c1 (centres undefined),103

# Tested on: SF-295
# Assay: Growth inhibition of human SF295 cells assessed as cell growth at 10 uM incubated for 48 hrs by sulforhodamine B assay relative to control
# Assay type: functional
# Conditions: SF-295, 48 h, read-out: Activity
row,SMILES,growth at 10 µM [%]
1,CCCCn1c(=O)c(C2CNC(=O)c3ccccc3N2)cc2ccc(Cl)cc21 (centres undefined),104
2,Cc1ccc2[nH]c(=O)c(C3CNC(=O)c4ccccc4N3)cc2c1 (centres undefined),103

# Tested on: U-937
# Assay: Cytotoxicity against human U937 cells after 72 hrs by MTT assay
# Assay type: functional
# Conditions: U-937, 72 h, read-out: LC50 (the source's name)
row,SMILES,CC50 [µg/mL]
1,Cc1ccc2[nH]c(=O)c(C3CNC(=O)c4ccccc4N3)cc2c1 (centres undefined),52.8

# Tested on: LOX IMVI
# Assay: Growth inhibition of human LOXIMVI cells assessed as cell growth at 10 uM incubated for 48 hrs by sulforhodamine B assay relative to control
# Assay type: functional
# Conditions: read-out: Activity
row,SMILES,growth at 10 µM [%]
1,CCCCn1c(=O)c(C2CNC(=O)c3ccccc3N2)cc2ccc(Cl)cc21 (centres undefined),86.3
2,Cc1ccc2[nH]c(=O)c(C3CNC(=O)c4ccccc4N3)cc2c1 (centres undefined),96.8

# Tested on: SK-MEL-5
# Assay: Growth inhibition of human SK-MEL-5 cells assessed as cell growth at 10 uM incubated for 48 hrs by sulforhodamine B assay relative to control
# Assay type: functional
# Conditions: SK-MEL-5, 48 h, read-out: Activity
row,SMILES,growth at 10 µM [%]
1,CCCCn1c(=O)c(C2CNC(=O)c3ccccc3N2)cc2ccc(Cl)cc21 (centres undefined),97.9
2,Cc1ccc2[nH]c(=O)c(C3CNC(=O)c4ccccc4N3)cc2c1 (centres undefined),98.6

# Tested on: NCI-H460
# Assay: Growth inhibition of human NCI-H460 cells assessed as cell growth at 10 uM incubated for 48 hrs by sulforhodamine B assay relative to control
# Assay type: functional
# Conditions: NCI-H460, 48 h, read-out: Activity
row,SMILES,growth at 10 µM [%]
1,CCCCn1c(=O)c(C2CNC(=O)c3ccccc3N2)cc2ccc(Cl)cc21 (centres undefined),87
2,Cc1ccc2[nH]c(=O)c(C3CNC(=O)c4ccccc4N3)cc2c1 (centres undefined),106

# Tested on: SF-268
# Assay: Growth inhibition of human SF268 cells assessed as cell growth at 10 uM incubated for 48 hrs by sulforhodamine B assay relative to control
# Assay type: functional
# Conditions: SF-268, 48 h, read-out: Activity
row,SMILES,growth at 10 µM [%]
1,CCCCn1c(=O)c(C2CNC(=O)c3ccccc3N2)cc2ccc(Cl)cc21 (centres undefined),105
2,Cc1ccc2[nH]c(=O)c(C3CNC(=O)c4ccccc4N3)cc2c1 (centres undefined),99.5

# Tested on: Hs-578T
# Assay: Growth inhibition of human Hs 578T cells assessed as cell growth at 10 uM incubated for 48 hrs by sulforhodamine B assay relative to control
# Assay type: functional
# Conditions: read-out: Activity
row,SMILES,growth at 10 µM [%]
1,CCCCn1c(=O)c(C2CNC(=O)c3ccccc3N2)cc2ccc(Cl)cc21 (centres undefined),102
2,Cc1ccc2[nH]c(=O)c(C3CNC(=O)c4ccccc4N3)cc2c1 (centres undefined),105

# Tested on: Plasmodium falciparum
# Assay: Antimalarial activity against chloroquine-sensitive Plasmodium falciparum 3D7 incubated for 48 hrs by malstat reagent based LDH release assay
# Assay type: functional, organism-based
# Conditions: 3D7, 48 h
row,SMILES,EC50 [µg/mL]
1,Cc1ccc2[nH]c(=O)c(C3CNC(=O)c4ccccc4N3)cc2c1 (centres undefined),60.9

# Tested on: MOLT-4
# Assay: Growth inhibition of human MOLT4 cells assessed as cell growth at 10 uM incubated for 48 hrs by sulforhodamine B assay relative to control
# Assay type: functional
# Conditions: MOLT-4, 48 h, read-out: Activity
row,SMILES,growth at 10 µM [%]
1,CCCCn1c(=O)c(C2CNC(=O)c3ccccc3N2)cc2ccc(Cl)cc21 (centres undefined),107
2,Cc1ccc2[nH]c(=O)c(C3CNC(=O)c4ccccc4N3)cc2c1 (centres undefined),113

# Tested on: MDA-MB-435
# Assay: Growth inhibition of human MDA-MB-435 cells assessed as cell growth at 10 uM incubated for 48 hrs by sulforhodamine B assay relative to control
# Assay type: functional
# Conditions: MDA-MB-435, 48 h, read-out: Activity
row,SMILES,growth at 10 µM [%]
1,CCCCn1c(=O)c(C2CNC(=O)c3ccccc3N2)cc2ccc(Cl)cc21 (centres undefined),103
2,Cc1ccc2[nH]c(=O)c(C3CNC(=O)c4ccccc4N3)cc2c1 (centres undefined),108

# Tested on: HL-60(TB)
# Assay: Growth inhibition of human HL-60(TB) cells assessed as cell growth at 10 uM incubated for 48 hrs by sulforhodamine B assay relative to control
# Assay type: functional
# Conditions: HL-60, 48 h, read-out: Activity
row,SMILES,growth at 10 µM [%]
1,CCCCn1c(=O)c(C2CNC(=O)c3ccccc3N2)cc2ccc(Cl)cc21 (centres undefined),107
2,Cc1ccc2[nH]c(=O)c(C3CNC(=O)c4ccccc4N3)cc2c1 (centres undefined),107

# Tested on: SK-MEL-2
# Assay: Growth inhibition of human SK-MEL-2 cells assessed as cell growth at 10 uM incubated for 48 hrs by sulforhodamine B assay relative to control
# Assay type: functional
# Conditions: SK-MEL-2, 48 h, read-out: Activity
row,SMILES,growth at 10 µM [%]
1,CCCCn1c(=O)c(C2CNC(=O)c3ccccc3N2)cc2ccc(Cl)cc21 (centres undefined),99.6
2,Cc1ccc2[nH]c(=O)c(C3CNC(=O)c4ccccc4N3)cc2c1 (centres undefined),110

# Tested on: HCC 2998
# Assay: Growth inhibition of human HCC2998 cells assessed as cell growth at 10 uM incubated for 48 hrs by sulforhodamine B assay relative to control
# Assay type: functional
# Conditions: HCC 2998, 48 h, read-out: Activity
row,SMILES,growth at 10 µM [%]
1,CCCCn1c(=O)c(C2CNC(=O)c3ccccc3N2)cc2ccc(Cl)cc21 (centres undefined),111
2,Cc1ccc2[nH]c(=O)c(C3CNC(=O)c4ccccc4N3)cc2c1 (centres undefined),107

# Tested on: DU-145
# Assay: Growth inhibition of human DU145 cells assessed as cell growth at 10 uM incubated for 48 hrs by sulforhodamine B assay relative to control
# Assay type: functional
# Conditions: DU-145, 48 h, read-out: Activity
row,SMILES,growth at 10 µM [%]
1,CCCCn1c(=O)c(C2CNC(=O)c3ccccc3N2)cc2ccc(Cl)cc21 (centres undefined),94.9
2,Cc1ccc2[nH]c(=O)c(C3CNC(=O)c4ccccc4N3)cc2c1 (centres undefined),106

# Tested on: SR
# Assay: Growth inhibition of human SR cells assessed as cell growth at 10 uM incubated for 48 hrs by sulforhodamine B assay relative to control
# Assay type: functional
# Conditions: read-out: Activity
row,SMILES,growth at 10 µM [%]
1,CCCCn1c(=O)c(C2CNC(=O)c3ccccc3N2)cc2ccc(Cl)cc21 (centres undefined),59.8
2,Cc1ccc2[nH]c(=O)c(C3CNC(=O)c4ccccc4N3)cc2c1 (centres undefined),133

# Tested on: MCF7
# Assay: Growth inhibition of human MCF7 cells assessed as cell growth at 10 uM incubated for 48 hrs by sulforhodamine B assay relative to control
# Assay type: functional
# Conditions: MCF7, 48 h, read-out: Activity
row,SMILES,growth at 10 µM [%]
1,CCCCn1c(=O)c(C2CNC(=O)c3ccccc3N2)cc2ccc(Cl)cc21 (centres undefined),89.1
2,Cc1ccc2[nH]c(=O)c(C3CNC(=O)c4ccccc4N3)cc2c1 (centres undefined),102

# Tested on: CAKI-1
# Assay: Growth inhibition of human Caki1 cells assessed as cell growth at 10 uM incubated for 48 hrs by sulforhodamine B assay relative to control
# Assay type: functional
# Conditions: CAKI-1, 48 h, read-out: Activity
row,SMILES,growth at 10 µM [%]
1,CCCCn1c(=O)c(C2CNC(=O)c3ccccc3N2)cc2ccc(Cl)cc21 (centres undefined),72.5
2,Cc1ccc2[nH]c(=O)c(C3CNC(=O)c4ccccc4N3)cc2c1 (centres undefined),92.1

# Tested on: Leishmania panamensis
# Assay: Antileishmanial activity against EpiR/GFP fused Leishmania panamensis MHOM/CO/87/UA140 intracellular amastigotes infected in human […] cells after 72 hrs by flow cytometric method
# Assay type: functional, organism-based
# Conditions: MHOM/CO/87/UA140, 72 h
row,SMILES,EC50 [µg/mL]
1,Cc1ccc2[nH]c(=O)c(C3CNC(=O)c4ccccc4N3)cc2c1 (centres undefined),22.9

# Tested on: BT-549
# Assay: Growth inhibition of human BT549 cells assessed as cell growth at 10 uM incubated for 48 hrs by sulforhodamine B assay relative to control
# Assay type: functional
# Conditions: BT-549, 48 h, read-out: Activity
row,SMILES,growth at 10 µM [%]
1,CCCCn1c(=O)c(C2CNC(=O)c3ccccc3N2)cc2ccc(Cl)cc21 (centres undefined),104
2,Cc1ccc2[nH]c(=O)c(C3CNC(=O)c4ccccc4N3)cc2c1 (centres undefined),99.4

# Tested on: PC-3
# Assay: Growth inhibition of human PC3 cells assessed as cell growth at 10 uM incubated for 48 hrs by sulforhodamine B assay relative to control
# Assay type: functional
# Conditions: PC-3, 48 h, read-out: Activity
row,SMILES,growth at 10 µM [%]
1,CCCCn1c(=O)c(C2CNC(=O)c3ccccc3N2)cc2ccc(Cl)cc21 (centres undefined),93
2,Cc1ccc2[nH]c(=O)c(C3CNC(=O)c4ccccc4N3)cc2c1 (centres undefined),98.5

# Tested on: MDA-MB-231
# Assay: Growth inhibition of human MDA-MB-231 cells assessed as cell growth at 10 uM incubated for 48 hrs by sulforhodamine B assay relative to control
# Assay type: functional
# Conditions: MDA-MB-231, 48 h, read-out: Activity
row,SMILES,growth at 10 µM [%]
1,CCCCn1c(=O)c(C2CNC(=O)c3ccccc3N2)cc2ccc(Cl)cc21 (centres undefined),81.1
2,Cc1ccc2[nH]c(=O)c(C3CNC(=O)c4ccccc4N3)cc2c1 (centres undefined),114

# Tested on: 786-0
# Assay: Growth inhibition of human 786-0 cells assessed as cell growth at 10 uM incubated for 48 hrs by sulforhodamine B assay relative to control
# Assay type: functional
# Conditions: 786-0, 48 h, read-out: Activity
row,SMILES,growth at 10 µM [%]
1,CCCCn1c(=O)c(C2CNC(=O)c3ccccc3N2)cc2ccc(Cl)cc21 (centres undefined),107
2,Cc1ccc2[nH]c(=O)c(C3CNC(=O)c4ccccc4N3)cc2c1 (centres undefined),103

# Tested on: RPMI-8226
# Assay: Growth inhibition of human RPMI8226 cells assessed as cell growth at 10 uM incubated for 48 hrs by sulforhodamine B assay relative to control
# Assay type: functional
# Conditions: RPMI-8226, 48 h, read-out: Activity
row,SMILES,growth at 10 µM [%]
1,CCCCn1c(=O)c(C2CNC(=O)c3ccccc3N2)cc2ccc(Cl)cc21 (centres undefined),103
2,Cc1ccc2[nH]c(=O)c(C3CNC(=O)c4ccccc4N3)cc2c1 (centres undefined),102
